Entries after “also recorded” stand apart in the source; their conditions may differ.
How the values were obtained:
[1] = system: chick chorioallantoic membrane (CAM); assay: Chick chorioallantoic membrane (CAM) assay; format: in vivo; conditions: methylcellulose disc, 100 micromolar SsnB
Experimental: To investigate the effects of SsnB on in vivo angiogenesis, a chick chorioallantoic membrane (CAM) assay was utilized. Chick embryos were exposed to methylcelluose discs containing vehicle control (DMSO) or 100 micromolar SsnB.
Methylcellulose discs were created with a solution of 0.5% methylcellulose (diluted in sterile deionized water). A methylcellulose solution of 100 micromolar SsnB was made by adding 1.1 microliters of stock SsnB (93 mM) to 1 ml 0.5% methylcellulose. A vehicle control solution was created by adding 1 microliter of dimethyl sulfoxide (DMSO) to 1 ml 0.5% methylcellulose. Discs were created by placing 20 microliter droplets of SsnB or vehicle control solution onto polytetrafluoroethylene tape (to minimize sticking during drying) and allowed to dry under a laminar flow hood.
The fertilized eggs were placed in a humidified egg incubator with forced air circulation at 37° C. The eggs were automatically rotated every three hours. After 4 days of incubation, the eggs were removed and cracked. Chick embryos with intact yolks were placed in 100 mm petri plates. Each petri plate was placed in a weigh boat containing 13 ml Moscona's buffer and covered with cellophane wrap with two holes for air circulation. The plates were placed in a water-jacketed incubator (37 C, 5% CO2) for 2 days. After 2 days of incubation, the methylcellulose discs containing either SsnB or vehicle control were placed on top of the CAM of each embryo in the right upper quadrant in an area near the allantoic vessels. After 2 additional days of incubation, the CAMs were examined and photographed with a dissecting stereomicroscope. Images were taken of areas containing the discs and non-treated regions. Each group contained seven embryos (calculated with PS 3.0.5 software, effect size of 50%, standard deviation of 30%, statistical power of 0.8, and α=0.05). The CAM assay was completed two times.
Images were analyzed with ImagePro Plus software. Blood vessel length and branching number were utilized to measure the effect of SsnB on angiogenesis. The vessel length was measured for areas containing the discs and non-treated regions. Normalized vessel length was calculated by dividing the length values of the treated regions by those of the non-treated regions. The same process was repeated for measuring the branching number.

HCAECs = assay: Microarray gene expression analysis (HCAECs); format: cell-based, human; conditions: 24 h
Experimental: Confluent plates (100×20 mm polystyrene, tissue culture-treated petri plates coated with 0.1% gelatin, 75% confluent) of HUVECs and HCAECs (four plates for HUVECs, n=2, and six plates for HCAECs, n=3) were chosen for the microarray experiments. Half of the plates received complete growth medium (10% fetal bovine serum with endothelial mitogen) containing vehicle control (0.1% DMSO), and the remaining plates received complete growth medium containing 100 μM SsnB. The plates were incubated for 24 h to allow SsnB to have an effect on cellular gene expression. Following incubation, RNA isolation was completed with the RNeasy Mini kit from Qiagen. The cells were lysed, and RNA was isolated by using the RNeasy spin columns and following the protocol provided by Qiagen. Purified RNA was sent to the Medical University of South Carolina Proteogenomics Facility for microarray analysis. The GeneChip Human Genome U133 Plus 2.0 Array was utilized to track changes in gene expression due to SsnB treatment. Complete data was uploaded to the NCBI Gene Expression Omnibus database (accession number GSE44598).
Microarray data analysis, including data normalization (robust multi-array average), identification of differentially expressed genes (comparative analyses with dChip software), and heat map construction, was carried out to determine how SsnB affects gene expression and affected pathways (n=2 for HUVECs and n=3 for HCAECs). After a careful analysis of the microarray data, several key genes were chosen for qRT-PCR to verify the gene expression results. The genes were chosen based on the following criteria: fold change ≧2, p<0.05, unpaired t-test with a false discovery rate approximating 0%, appearing in both data sets (HUVECs and HCAECs), and gene function relating to cell proliferation and/or angiogenesis. For qRT-PCR, the expression levels were normalized to the housekeeping gene GAPDH, and RNA levels were compared between groups with the ΔΔCt method.

In the case of `O=c1occ2c3c(ccc(O)c13)Oc1ccc(O)cc1-2` [SsnB, Sparstolonin B], the “blood vessel diameter and size” value ([1]; 2 days) is reported as “decrease”, the normalized branch number ([1]; 2 days, vs vehicle control) is reported as “significant decrease; also recorded: significant reduction” and the “normalized blood vessel length (capillary length)” value ([1]; 2 days, vs vehicle control, p<0.05) is reported as “significant decrease; also recorded: significant reduction”. For the same compound, the “viability or morphology of the embryos” value ([1]; relative to vehicle control) was “no effect”, the “ALDH3A1 Microarray Fold change value” (HCAECs; 100 μM SsnB vs vehicle control) was 8.8 and the “ANLN Microarray Fold change value” (HCAECs; 100 μM SsnB vs vehicle control) was 0.11. The “CCNB1 Microarray Fold change value” (HCAECs; 100 μM SsnB vs vehicle control) was 0.16, the “CCNE2 Microarray Fold change value” (HCAECs; 100 μM SsnB vs vehicle control) was 0.38 and the “CDC2 Microarray Fold change value” (HCAECs; 100 μM SsnB vs vehicle control) was 0.20. The “CDC6 Microarray Fold change value” (HCAECs; 100 μM SsnB vs vehicle control) was 0.18, the “CDKN3 Microarray Fold change value” (HCAECs; 100 μM SsnB vs vehicle control) was 0.18 and the “DIAPH3 Microarray Fold change value” (HCAECs; 100 μM SsnB vs vehicle control) was 0.38. The “HMMR Microarray Fold change value” (HCAECs; 100 μM SsnB vs vehicle control) was 0.20, the “KITLG Microarray Fold change value” (HCAECs; 100 μM SsnB vs vehicle control) was 2.1 and the “number of differentially expressed genes in response to SsnB exposure” value (HCAECs; 100 μM, fold change ≧2, p<0.05) was 356 genes.

— patent US20140303242A1, “Sparstolonin B Based Pharmaceutical Agent to Treat Pathological Angiogensis” (University of South Carolina, priority 2013, published 2014)
